Results on 1 molecule are retold here after patent publication US20240199555A1, “APPLICATIONS OF BIASED LIGANDS OF THE SEROTONIN 5-HT7 RECEPTOR FOR THE TREATMENT OF PAIN, MULTIPLE SCLEROSIS AND THE CONTROL OF THERMOREGULATION” (Centre National de la Recherche Scientifique, priority 2021, published 2024).

One experiment concerns HEK-293 mock cells. The experiment can be described thus: Control in mock-transfected HEK-293 cells (cAMP, ERK phosphorylation). The format is cell-based, human. The protocol: ERK phosphorylation was monitored by western blotting after treatment of cells with 10 μM of ligands at different times ranging from 2 to 60 minutes. […] The kinetics of ERK phosphorylation elicited by 5-CT, Serodolin and MOA-51 were very similar: activation was fast and transient, and reached a pick between 2 and 7 minutes after drug exposure. However, ERK phosphorylation-induced by Serodolin and MOA-51 was more protracted compared to 5-CT, the reference agonist.

The next experiment addresses 5-HT7(b) receptors (Homo sapiens, UniProt P34969). The experiment can be described thus: BRET between 5-HT7-RLuc and Venus-mini G proteins (G protein recruitment). The format is cell-based. (In general: Bioluminescence resonance energy transfer reports proximity on the nanometre scale.)
In another experiment the target is h5-HT7R (Homo sapiens (Human), UniProt P34969). The experiment can be described thus: ERK1/2 and c-SRC phosphorylation by western blot in HEK-293 cells stably expressing h5-HT7R. The format is cell-based. The protocol:
(A, B, C, D, E, F) Time course of activation of ERK1/2 after stimulation of HEK-293 cells stably expressing h5-HT7R with various 5-HT7R ligands used at 10 μM. The cells were stimulated for the indicated periods and assayed for detection of phospho ERK1/2 by western blot analysis. […] Representative blots of three independent experiments are illustrated. The histogram on the right of each panel represents the results of densitometric analyses of three independent experiments. Data are means±SEM. * p<0.05; ** p<0.01; *** p<0.001 versus non stimulated cells (NS).
HEK-293 cells stably expressing h5-HT7R were stimulated with increasing concentrations of 5-CT or Serodolin for 7 minutes. Cells were lysed, and western blot analysis was performed. Representative Western blots from three independent experiments were shown in A-C. Quantification was performed by densitometric analyses from three independent experiments. Analyzed data were plotted versus log concentration for each compounds (A; B) or as bar graph (C) on the right panel.
Time course of activation of ERK1/2 after stimulation of HEK-293 cells stably expressing h5-HT7R with JLB060, a 5-HT7R ligand used at 10 μM. The cells were stimulated for the indicated periods and assayed for detection of phospho ERK1/2 by western blot analysis.
(§1) Treated cells were washed twice with cold PBS and lysed on ice for 30 min in lysis buffer containing 50 mM Tris pH 7.5, 150 mM NaCl, 10 mM EDTA, 1% Triton X-100 and the protease inhibitor cocktail. Cell lysates were centrifuged at 10,000×g for 10 min. Supernatant was then solubilized in Laemmli buffer with 0.1% β-mercaptoethanol. Samples were resolved by electrophoresis on 10% SDS-PAGE, and transferred electrophoretically to polyvinylidene fluoride (PVDF) membranes (GE Healthcare Life Sciences). […] membranes were washed in Tris-buffered saline (TBS; pH 7.4) containing 0.1% Tween-20 (TBS-T; 0.1%) and blocked with 5% (w/v) dry milk TBS-T 0.1% for 30 min. […] Blots were probed with anti-arrestin, anti-Phospho-ERK or anti-ERK antibody (1:2000), anti Phospho-SRC, anti SRC antibody, anti-HA or anti-GFP or anti-actin antibodies. Horseradish-peroxidase-conjugated goat anti-rabbit, anti-mouse or anti-rat antibodies (1:33,000) were used as secondary antibodies. Immunoreactive bands were detected using the Dura detection kit. Protein quantification on blots was performed using Quantity One software (Biorad).
as §1, with “12%” for “10%”, “with” for “with anti-arrestin,”, “anti-Phospho-ERK (1:2000)” for “anti-Phospho-ERK”, “anti-GAPDH” for “anti-ERK”, “(1:5000). […]” for “(1:2000), anti Phospho-SRC, anti SRC antibody, anti-HA or anti-GFP or anti-actin antibodies. Horseradish-peroxidase-conjugated goat anti-rabbit, anti-mouse or anti-rat antibodies (1:33,000) were used as secondary antibodies.”
ERK phosphorylation was monitored by western blotting after treatment of cells with 10 μM of ligands at different times ranging from 2 to 60 minutes.
(In general: A western blot detects proteins with antibodies after separation by electrophoresis.)

The subject of a further experiment is C57BL/6 mice. The experiment can be described thus: Spared Nerve Injury (SNI) neuropathic pain model, Von Frey. To be noted: s.c.
Experiment [1] concerns neuronal culture endogenously expressing 5-HT7R. The experiment can be described thus: pERK immunocytochemistry in mixed neuronal cultures. The format is cell-based, mice. The settings on record: 10 μM; 7, 15, 30 min. The text has this: FIG. 4: Serodolin stimulation induces ERK phosphorylation in neuronal culture. […] These images are representative of two independent experiments. (B) pERK fluorescence intensity (AU) from immunofluorescence staining. Results represent mean±SEM of values obtained in two independent experiments (150-200 cells counted per group). ****P<0.0001 ***P<0.001 **P<0.01 *P<0.05. Statistical analysis was done using Tukey's multiple comparison test. Cerebral cortex from embryos (E15) mice were collected and mechanically dissociated in 1 mL of HBSS (-Ca^2+) (Sigma) with HEPES (H3375, Sigma). […] Neuronal differentiation was performed in 24-well plates, during 7 days with 3 medium changes per week. Stimulated neuronal culture were fixed with 4% paraformaldehyde in PBS during 10 min and then washed with PBS. Cells were saturated with 0.3% Triton X-100 in 1% BSA in TBS-FCS 10% for 1 hr, followed by three washes in TBS and incubated overnight with rabbit anti-pERK (9101 1/200, Cell Signaling) and mouse anti-MAP2 (119942 1/250, Sigma), anti-GFAP (G61711/250, Sigma) in TBS with 1% BSA, 10% FCS and 0.3% Triton X-100. […] Images were processed with the Zen software analyzed with Image J.

h5-HT7R, sequence (P34969 1-432): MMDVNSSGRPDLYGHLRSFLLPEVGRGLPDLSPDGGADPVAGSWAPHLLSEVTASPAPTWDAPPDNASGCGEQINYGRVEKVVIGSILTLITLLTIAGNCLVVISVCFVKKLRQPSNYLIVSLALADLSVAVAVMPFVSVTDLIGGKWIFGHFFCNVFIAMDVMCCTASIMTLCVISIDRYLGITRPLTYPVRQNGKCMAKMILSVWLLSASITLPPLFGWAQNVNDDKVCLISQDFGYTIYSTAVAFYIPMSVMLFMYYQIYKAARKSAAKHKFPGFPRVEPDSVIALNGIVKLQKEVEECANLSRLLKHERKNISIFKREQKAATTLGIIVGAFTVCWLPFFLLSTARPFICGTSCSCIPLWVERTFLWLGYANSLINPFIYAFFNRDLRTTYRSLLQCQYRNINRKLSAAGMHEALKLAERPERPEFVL
5-HT7(b) receptors, sequence (P34969 whole entry, looked up): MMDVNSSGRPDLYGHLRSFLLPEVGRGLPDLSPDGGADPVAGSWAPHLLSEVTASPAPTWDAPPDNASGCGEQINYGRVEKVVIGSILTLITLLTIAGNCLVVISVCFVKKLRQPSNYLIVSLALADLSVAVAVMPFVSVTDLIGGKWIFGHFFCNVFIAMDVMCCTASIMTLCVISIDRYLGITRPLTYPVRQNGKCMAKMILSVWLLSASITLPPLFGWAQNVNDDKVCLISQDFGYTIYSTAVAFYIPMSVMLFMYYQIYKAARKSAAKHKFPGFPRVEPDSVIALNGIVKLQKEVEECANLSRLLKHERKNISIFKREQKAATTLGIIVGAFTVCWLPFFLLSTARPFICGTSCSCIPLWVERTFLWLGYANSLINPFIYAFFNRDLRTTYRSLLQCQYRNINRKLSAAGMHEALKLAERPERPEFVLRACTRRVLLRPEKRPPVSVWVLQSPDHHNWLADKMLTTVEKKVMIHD
Method for 5-HT7(b) receptors: For −mGi, mG12 and mGq cells were also transfected with a receptor described as positively coupled to the G protein: Cells expressing the Adenosine 2 receptor A2R, the Histamine3 receptor H3R or the Ghrelin receptor GHSR were stimulated with adenosine, imetit or ghrelin respectively. Ligand mediated BRET changes are expressed as induced BRET changes which were generated by subtracting at each point the signal obtained on cells incubated with PBS (without ligand).
To evaluate Gαs, Gαq, Gαi recruitment, cells were transiently transfected with 5-HT7R(b) C—terminally fused with donor Rluc (5-HT7R-Rluc) and acceptor NESVenus. mGs, or NES-Venus-mGsq or NES-Venus-mGsi (kindly provided by Pr. N. A. Lambert, Augusta University, Augusta, USA) (Ayoub, M. A., Landomiel, F., Gallay, N., Jegot, G., Poupon, A., Crepieux, P., and Reiter, E. (2015) Assessing Gonadotropin Receptor Function by Resonance Energy Transfer-Based Assays. Front Endocrinol (Lausanne) 6, 130; Wan, Q., Okashah, N., Inoue, A., Nehme, R., Carpenter, B., Tate, C. G., and Lambert, N. A. (2018) Mini G protein probes for active G protein-coupled receptors (GPCRs) in live cells. […] Data were plotted and analysed using GraphPad Prism 4 software for Windows (GraphPad Software Inc, San Diego, CA, USA). […]
Method for C57BL/6 mice: Pregabalin, vehicle or compounds solutions are subcutaneously administrated for 8 consecutive days. • (A) Mechanical response threshold after the first administration (D+10). […] Positive control animals were treated with Pregabalin (5 mg/kg, sc). Statistical differences are indicated compared to vehicle group (Two-way RM ANOVA followed by Bonferroni post-hoc test: ***p<0.001, ** p<0.01, * p<0.05). […] Positive control animals were treated with Pregabalin (5 mg/kg, sc). Statistical differences are indicated compared to vehicle group (Two-way RM ANOVA followed by Bonferroni post-hoc test: ***p<0.001, ** p<0.01, * p<0.05). […] (Two-way RM ANOVA followed by Bonferroni post-hoc test: ***p<0.001, ** p<0.01, * p<0.05)
MOA51 and Serodolin (AIC01) compounds were diluted in NDT solution (NaCl 0.9%—DMSO 20%—Tween80 5%). […] AIC01 was resuspended at 0.5 mg/mL and administrated at a ratio of 100 μl per 10 g (dose of 5 mg/kg).
Experiment starts with 8 weeks old male C57B16J mice (from Charles River). Study was performed on 40 mice (2 mice were excluded during the study due to health guidelines) divided in 4 randomized groups. • Group A: s.c. injection at 5 mg/kg of pregabalin. • Group B: s.c. injection at 0.5 mg/kg of MOA51. • Group C: s.c. injection at 5 mg/kg of Serodolin (AIC01). • Group D: s.c. injection of NDT solution (referred as Vehicle hereafter).
Compounds solutions, pregabalin and vehicle were subcutaneously administrated (100 μl/10 g) for 9 consecutive days, starting 10 days after surgery. Ligature and transection of the common peroneal and tibial distal branches of the sciatic nerve was made leaving the sural branch intact. 7 days post-surgery, a decrease of threshold response to Von Frey filaments of ipsilateral hind-paw was observed corresponding to neuropathic pain apparition (mechanical allodynia). Mechanical threshold response of mice were measured with calibrated Von Frey filaments using the up/down method. Experimenter was blind to mice treatment. Measures are performed as follow: one baseline measure before surgery, one measure at D+10, D+12, D+14, D+16 and D+18 before drug's administration, and 1 h, 2 h post-drug administration. A supplementary measure 4 h post-drug administration was performed at D+10 and D+18.
Two-way RM ANOVA (followed by Bonferroni post-hoc test) was used to analysed time course response at D+10 and D+18. Area under the curve was determined with the 1 h and 2 h post-drug administration measures to investigated tolerance of repeated administration of compounds

`O=c1[nH]c2ccccc2n1CN1CCN(c2ccc(F)cc2)CC1` [Serodolin]: the “ERK phosphorylation in HEK-293 mock cells” value in the experiment on HEK-293 mock cells was “neither Serodolin, nor MOA-51 were able to induce ERK phosphorylation”. For the same molecule, the “Gαs recruitment” value at 5-HT7(b) receptors (mGs BRET) is “behaved as inverse for Gαs recruitment”. Also, the “Gαi, Ga12 or Gαq recruitment” value on 5-HT7(b) receptors (mGsi, mG12, mGsq BRET) is “neither classical (5-CT, SB 269970) nor biased 5-HT7R ligands (Serodolin) were able to induce the Gαi, Ga12 or Gαq recruitment”. Also, the “induction of ERK phosphorylation” value at h5-HT7R (10 μM of ligand or increasing concentrations, western blot) is given as “concentration-dependent increase of ERK phosphorylation”. In addition, the “ERK phosphorylation at the maximal effect” value at h5-HT7R (10 μM of ligand, 2 to 60 minutes) is reported as 409±34 % of control. The “phosphorylation of c-SRC kinase at Tyr416” value on h5-HT7R (western blot, 7 minutes) is listed as “induced only after activation of 5-HT7R by Serodolin”. For the same molecule, the “tolerance after repetitive administration (AUC)” value with C57BL/6 mice (9 consecutive days) is listed as “didn't present any tolerance effect after repetitive administration”. The “mechanical response threshold vs vehicle” value in the experiment on C57BL/6 mice (first (D+10) and last (D+18) administration, 1 h and 2 h) is “significant increase of the mechanical threshold response”. The “ERK phosphorylation in neuronal culture” value in experiment [1] is reported as “ERK phosphorylation also occurs in neuronal culture”.
